Source: patent publication US11584747B2, “Substituted pyridopyrimidinonyl compounds useful as T cell activators” (BRISTOL-MYERS SQUIBB COMPANY, priority 2019, dated 2023)
Read-outs that look alike come from different tables or passages of the source.

Tests used:
[1] = target: human DGKζ (Homo sapiens (Human), UniProt Q13574); test: DGKζ LIPGLO assay (extruded liposome substrate, ADP-Glo luminescence); assay type: biochemical
[2] = target: human DGKα (Homo sapiens (Human), UniProt P23743); test: DGKα LIPGLO assay (extruded liposome substrate, ADP-Glo luminescence); assay type: biochemical
[3] = system: human venous whole blood (IFN-γ); test: Human whole blood IFN-γ assay; assay type: cell-based
Experimental: Human venous whole blood (22.5 μL per well), obtained from healthy donors, was pre-treated with compounds for one hour at 37° C. in a humidified 95% air/5% CO2 incubator. The blood was stimulated with 2.5 μL anti-human CD3 and anti-CD28 mAb at a final concentration of 1 μg/mL each for 24 hours at 37° C. IFN-γ in the supernatants was measured using AlphLISA kit (Cat #AL217).

[4] = liposome assay, read-out: DGK zeta LIPGLO IC50
[5] = liposome assay, read-out: DGK alpha LIPGLO IC50
[6] = whole blood, normalized to 3 μM reference compound as 100% activation, read-out: IFN-γ Whole Blood Normalized EC50
[7] = Homo sapiens, whole blood, normalized to 3 μM reference compound as 100% activation, read-out: IFN-γ Whole Blood Normalized EC50

Chain of human DGKα (P23743 whole entry, looked up): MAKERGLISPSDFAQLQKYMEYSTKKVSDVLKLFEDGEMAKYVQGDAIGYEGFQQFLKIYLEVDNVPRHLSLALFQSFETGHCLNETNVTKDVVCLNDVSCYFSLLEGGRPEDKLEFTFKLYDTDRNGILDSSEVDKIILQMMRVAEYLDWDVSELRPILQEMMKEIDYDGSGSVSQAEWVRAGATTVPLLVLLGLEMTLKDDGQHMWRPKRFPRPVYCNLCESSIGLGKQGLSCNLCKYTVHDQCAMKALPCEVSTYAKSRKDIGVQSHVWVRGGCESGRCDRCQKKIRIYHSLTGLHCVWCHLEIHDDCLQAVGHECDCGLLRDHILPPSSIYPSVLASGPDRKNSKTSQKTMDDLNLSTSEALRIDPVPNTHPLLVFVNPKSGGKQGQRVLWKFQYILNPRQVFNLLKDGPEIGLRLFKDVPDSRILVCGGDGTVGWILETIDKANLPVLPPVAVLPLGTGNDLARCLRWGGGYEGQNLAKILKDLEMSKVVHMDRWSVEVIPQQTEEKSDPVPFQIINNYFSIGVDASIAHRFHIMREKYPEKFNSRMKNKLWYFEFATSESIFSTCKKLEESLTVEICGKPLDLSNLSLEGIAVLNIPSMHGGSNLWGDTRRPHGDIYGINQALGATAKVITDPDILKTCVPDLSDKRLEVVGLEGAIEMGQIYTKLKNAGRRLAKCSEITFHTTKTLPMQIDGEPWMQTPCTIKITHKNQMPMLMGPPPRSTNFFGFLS
Chain of human DGKζ (Q13574 other isoform, or with tags, fused parts or gaps): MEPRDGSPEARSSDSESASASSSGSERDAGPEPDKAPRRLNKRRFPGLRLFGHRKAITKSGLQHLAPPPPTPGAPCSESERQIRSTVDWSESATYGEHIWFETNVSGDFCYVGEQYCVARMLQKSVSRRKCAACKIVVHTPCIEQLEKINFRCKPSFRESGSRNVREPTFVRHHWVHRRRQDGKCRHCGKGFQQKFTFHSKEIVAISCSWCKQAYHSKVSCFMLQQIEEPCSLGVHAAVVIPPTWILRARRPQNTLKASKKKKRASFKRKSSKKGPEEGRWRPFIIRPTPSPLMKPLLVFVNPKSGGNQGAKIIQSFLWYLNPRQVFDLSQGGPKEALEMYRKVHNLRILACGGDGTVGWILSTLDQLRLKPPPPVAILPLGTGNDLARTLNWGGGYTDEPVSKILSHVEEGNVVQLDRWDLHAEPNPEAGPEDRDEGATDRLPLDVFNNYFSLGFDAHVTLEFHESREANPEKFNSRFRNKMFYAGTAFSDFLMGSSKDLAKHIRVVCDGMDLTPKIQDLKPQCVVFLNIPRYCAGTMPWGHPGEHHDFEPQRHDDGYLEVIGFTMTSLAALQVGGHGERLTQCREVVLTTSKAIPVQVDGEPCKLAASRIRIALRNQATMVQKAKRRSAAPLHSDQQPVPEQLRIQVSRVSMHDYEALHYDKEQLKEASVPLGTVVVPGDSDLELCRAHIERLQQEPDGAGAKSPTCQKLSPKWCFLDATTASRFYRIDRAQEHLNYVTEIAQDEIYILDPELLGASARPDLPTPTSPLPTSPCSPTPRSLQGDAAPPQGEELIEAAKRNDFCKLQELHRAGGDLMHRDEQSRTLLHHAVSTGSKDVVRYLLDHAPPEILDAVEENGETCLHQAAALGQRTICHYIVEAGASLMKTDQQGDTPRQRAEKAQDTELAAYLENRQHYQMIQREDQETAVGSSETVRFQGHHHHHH

IC50 [1, 4]	IC50 [2, 5]	IC50 ([1]; liposome (LIPGLO) assay, read-out: DGK zeta (liposome assay) IC50)	IC50 ([2]; liposome (LIPGLO) assay, read-out: DGK alpha (liposome assay) IC50)	EC50 ([3]; human whole blood, anti-CD3 plus anti-CD28 stimulation, 24 hours, read-out: IFN-γ Whole Blood EC50)	Structure (SMILES)	EC50 [3, 6]	EC50 [3, 7]
38 nM	94 nM				C[C@@H]1CN(c2nc(=O)n(C)c3ccc(C#N)nc23)[C@@H](C)CN1C(c1ccc(F)cc1)c1nc(C2CC2)cs1 (single isomer, unassigned) [Example 159]	250 nM	
2110 nM	1000 nM				CC[C@H]1CN(C(C)c2ccc(C(F)(F)F)cc2)[C@H](C)CN1c1nc(=O)n(C)c2ccc(C#N)nc12 (stereo partly drawn) [Example 116, 4-((2S,5R)-2-ethyl-5-methyl-4-(1-(4-(trifluoromethyl)phenyl)ethyl)piperazin-1-yl)-1-methyl-2-oxo-1,2-dihydropyrido[3,2-d]pyrimidine-6-carbonitrile]	1430 nM	
120 nM	460 nM				CC[C@@H]1CN(c2nc(=O)n(C)c3ccc(C#N)nc23)[C@@H](C)CN1C(C)c1ccc(C2CC2)cc1F (single isomer, unassigned) [Example 92]	350 nM	
100 nM	260 nM				CC(c1ccc(F)c(F)c1)N1C[C@H](C)N(c2nc(=O)n(C)c3ccc(C#N)nc23)C[C@H]1C (single isomer, unassigned) [Example 148]	570 nM	
440 nM	160 nM				CC[C@H]1CN(C(c2ccc(F)cc2)c2ccc(C(F)(F)F)cn2)[C@H](C)CN1c1nc(=O)n(C)c2ccc(C#N)nc12 (stereo partly drawn) [Example 114, 4-((2S,5R)-2-ethyl-4-((4-fluorophenyl)(5-(trifluoromethyl)pyridin-2-yl)methyl)-5-methylpiperazin-1-yl)-1-methyl-2-oxo-1,2-dihydropyrido[3,2-d]pyrimidine-6-carbonitrile]	470 nM	
23 nM	79 nM				CC[C@@H]1CN(c2nc(=O)n(C)c3ccc(C#N)nc23)[C@@H](C)CN1C(c1ccc(F)cc1)c1ccc(C2CC2)cn1 (single isomer, unassigned) [Example 76]	180 nM	
1210 nM	2100 nM				CC(c1ccc(OC(F)(F)F)c(F)c1)N1C[C@H](C)N(c2nc(=O)n(C)c3ccc(C#N)nc23)C[C@H]1C (single isomer, unassigned) [Example 161]	4010 nM	
370 nM	380 nM				C[C@@H]1CN(c2nc(=O)n(C)c3ccc(C#N)nc23)[C@@H](C)CN1C(c1ccc(OC(F)(F)F)cc1)c1cc(C2CC2)on1 (single isomer, unassigned) [Example 165]	630 nM	
220 nM	58 nM				CC[C@@H]1CN(c2nc(=O)n(C)c3ccc(C#N)nc23)[C@@H](C)CN1Cc1ccc(OC(F)(F)F)cc1F [Example 62, 4-((2S,5R)-5-ethyl-4-(2-fluoro-4-(trifluoromethoxy)benzyl)-2-methylpiperazin-1-yl)-1-methyl-2-oxo-1,2-dihydropyrido[3,2-d]pyrimidine-6-carbonitrile]		200 nM
510 nM	310 nM				CC[C@H]1CN(C(C)c2ccc(C(F)(F)F)nc2)[C@H](CC)CN1c1nc(=O)n(C)c2ccc(C#N)nc12 (single isomer, unassigned) [Example 45]	1040 nM	
79 nM	630 nM				CC[C@@H]1CN(c2nc(=O)n(C)c3ccc(C#N)nc23)[C@@H](C)CN1C(C)c1ccc(OC(C)C)cc1 (single isomer, unassigned) [Example 53]	200 nM	
		370 nM	240 nM	520 nM	CC(c1ccc(OC(C)(C)C#N)cc1)N1C[C@H](C)N(c2nc(=O)n(C)c3ccc(C#N)nc23)C[C@H]1C (stereo partly drawn) [Example 377, 4-((2S,5R)-4-(1-(4-((2-cyanopropan-2-yl)oxy)phenyl)ethyl)-2,5-dimethylpiperazin-1-yl)-1-methyl-2-oxo-1,2-dihydropyrido[3,2-d]pyrimidine-6-carbonitrile]		
110 nM	190 nM				CC(c1ccc(C2CC2)cc1)N1C[C@H](C)N(c2nc(=O)n(C)c3ccc(C#N)nc23)C[C@H]1C (single isomer, unassigned) [Example 3]	31 nM	
930 nM	960 nM				CC[C@@H]1CN(c2nc(=O)n(C)c3ccc(C#N)nc23)[C@@H](C)CN1C(C)c1ccc(OC)cc1 (single isomer, unassigned) [Example 57]	1900 nM	
370 nM	16 nM				CCC(c1ccc(OC(F)(F)F)cc1)N1C[C@H](C)N(c2nc(=O)n(C)c3ccc(C#N)nc23)C[C@H]1C (single isomer, unassigned) [Example 154]		1430 nM
1010 nM	386 nM				CC[C@H]1CN(C(C)c2ccc(C(F)(F)F)cc2)[C@H](CC)CN1c1nc(=O)n(C)c2ccc(C#N)nc12 (single isomer, unassigned) [Example 21]	2850 nM	
340 nM	120 nM				C[C@@H]1CN(c2nc(=O)n(C)c3ccc(C#N)nc23)[C@@H](C)CN1C(c1ccc(OC(F)(F)F)cc1)c1cc(C2CC2)on1 (single isomer, unassigned) [Example 164]		650 nM

IC50 [1, 4]	IC50 [2, 5]	IC50 ([1]; liposome (LIPGLO) assay, read-out: DGK zeta (liposome assay) IC50)	IC50 ([2]; liposome (LIPGLO) assay, read-out: DGK alpha (liposome assay) IC50)	EC50 ([3]; human whole blood, anti-CD3 plus anti-CD28 stimulation, 24 hours, read-out: IFN-γ Whole Blood EC50)	Structure (SMILES)	EC50 [3, 6]	EC50 [3, 7]
220 nM	920 nM				C[C@@H]1CN(c2nc(=O)n(C)c3ccc(C#N)nc23)[C@@H](C)CN1Cc1ccc(F)cc1Cl [Example 136, 4-((2S,5R)-4-(2-chloro-4-fluorobenzyl)-2,5-dimethylpiperazin-1-yl)-1-methyl-2-oxo-1,2-dihydropyrido[3,2-d]pyrimidine-6-carbonitrile]		650 nM
1220 nM	490 nM				CC[C@H]1CN(C(C)c2ccc3c(c2)OC(F)(F)O3)[C@H](CC)CN1c1nc(=O)n(C)c2ccc(C#N)nc12 (single isomer, unassigned) [Example 15]	1740 nM	
110 nM	470 nM				CC[C@@H]1CN(c2nc(=O)n(C)c3ccc(C#N)nc23)[C@@H](C)CN1C(c1ccc(F)cc1)c1cnc(C2CC2)s1 (single isomer, unassigned) [Example 104]	210 nM	
21 nM	85 nM				CC[C@H]1CN(C(C)c2ccc(C(F)(F)F)nc2)[C@H](CC)CN1c1nc(=O)n(C)c2ccc(C#N)nc12 (single isomer, unassigned) [Example 44]	260 nM	
960 nM	1700 nM				CC[C@H]1CN(C(C)c2ccc(OC(F)(F)F)c(F)c2)[C@H](CC)CN1c1nc(=O)n(C)c2ccc(C#N)nc12 (single isomer, unassigned) [Example 31]	270 nM	
1080 nM	2270 nM				CC[C@H]1CN(C(C)c2ccc(C3CC3)cc2F)[C@H](CC)CN1c1nc(=O)n(C)c2ccc(C#N)nc12 (single isomer, unassigned) [Example 41]	470 nM	
380 nM	52 nM				CC[C@@H]1CN(c2nc(=O)n(C)c3ccc(C#N)nc23)[C@@H](C)CN1C(C)c1ccc(C#N)cc1 (single isomer, unassigned) [Example 61]	4500 nM	
990 nM	740 nM				Cc1ccc(C(c2ccc(C)cc2)N2C[C@H](C)N(c3nc(=O)n(C)c4ccc(C#N)nc34)C[C@H]2C)cc1 [Example 125]		500 nM
130 nM	39 nM				C[C@@H]1CN(c2nc(=O)n(C)c3ccc(C#N)nc23)[C@@H](C)CN1C(c1ccc(F)cc1)c1nc(C2CC2)no1 (single isomer, unassigned) [Example 106]	240 nM	
52 nM	230 nM				CC[C@@H]1CN(c2nc(=O)n(C)c3ccc(C#N)nc23)[C@@H](C)CN1C(C)c1ccc(OC(C)C)cc1 (single isomer, unassigned) [Example 52]	53 nM	
330 nM	5390 nM				CC(c1ccc2c(c1)OC(F)(F)O2)N1C[C@H](C)N(c2nc(=O)n(C)c3ccc(C#N)nc23)C[C@H]1C (single isomer, unassigned) [Example 166]	500 nM	
140 nM	590 nM				COC[C@@H]1CN(c2nc(=O)n(C)c3ccc(C#N)nc23)[C@@H](C)CN1C(C)c1ccc(C(F)(F)F)cc1 (single isomer, unassigned) [Example 174]	140 nM	
23 nM	300 nM				CCC(c1ccc2c(c1)OC(F)(F)O2)N1C[C@H](C)N(c2nc(=O)n(C)c3ccc(C#N)nc23)C[C@H]1CC (single isomer, unassigned) [Example 79]		300 nM
14 nM	210 nM				CC[C@@H]1CN(c2nc(=O)n(C)c3ccc(C#N)nc23)[C@@H](C)CN1C(C)c1ccc(OCC2CC2)cc1F (single isomer, unassigned) [Example 69]	33 nM	
2650 nM	1570 nM				CC[C@H]1CN(C(C)c2ccc(C3CC3)cc2)[C@H](CC)CN1c1nc(=O)n(C)c2ccc(C#N)nc12 (single isomer, unassigned) [Example 28]	2040 nM	
17 nM	29 nM				[2H]C([2H])([2H])Oc1ccc(C(C)N2C[C@H](CC)N(c3nc(=O)n(C)c4ccc(C#N)nc34)C[C@H]2CC)cc1 (single isomer, unassigned) [Example 190]	9 nM	
310 nM	620 nM				CC[C@H]1CN(C(c2ccc(F)cc2)c2ccon2)[C@H](CC)CN1c1nc(=O)n(C)c2ccc(C#N)nc12 (single isomer, unassigned) [Example 34]	420 nM	
